Reference: ChEMBL document CHEMBL1201862, “PubChem BioAssay data set” (2004)
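How tested: cells in 96-well plates exposed to compound for 48 hours at five concentrations. GI50: concentration for 50% inhibition of growth.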 Active and inactive are the calls of the source. Rule as the data show it: active = GI50 up to about 1.1 µM and inactive = higher.

How the values were obtained:
Experiment in all cases: inhibition of tumour cell growth, NCI panel, 48 h
[1] = tested on: SNB-19
[2] = tested on: SK-MEL-28
[3] = tested on: RPMI-8226
[4] = tested on: HCT-15
[5] = tested on: M14
[6] = tested on: SF-539
[7] = tested on: DU-145
[8] = tested on: UACC-257
[9] = tested on: SR
[10] = tested on: HOP-92
[11] = tested on: NCI/ADR-RES
[12] = tested on: KM12
[13] = tested on: NCI-H226
[14] = tested on: LOX IMVI
[15] = tested on: HOP-62
[16] = tested on: SK-MEL-5
[17] = tested on: SF-268
[18] = tested on: MCF7
[19] = tested on: SN12C
[20] = tested on: CCRF-CEM
[21] = tested on: MOLT-4
[22] = tested on: K562
[23] = tested on: PC-3
[24] = tested on: EKVX
[25] = tested on: NCI-H23
[26] = tested on: HT-29
[27] = tested on: UO-31
[28] = tested on: UACC-62
[29] = tested on: MDA-MB-435
[30] = tested on: SW-620
[31] = tested on: BT-549
[32] = tested on: COLO 205
[33] = tested on: HL-60
[34] = tested on: ACHN
[35] = tested on: SK-OV-3
[36] = tested on: HCC 2998
[37] = tested on: A549
[38] = tested on: TK-10
[39] = tested on: OVCAR-3
[40] = tested on: RXF 393
[41] = tested on: OVCAR-5
[42] = tested on: SNB-75
[43] = tested on: MDA-N
[44] = tested on: IGROV-1
[45] = tested on: Malme-3M
[46] = tested on: NCI-H522
[47] = tested on: HCT-116
[48] = tested on: CAKI-1
[49] = tested on: T47D
[50] = tested on: SF-295
[51] = tested on: U-251
[52] = tested on: Hs-578T
[53] = tested on: SK-MEL-2
[54] = tested on: OVCAR-8
[55] = tested on: OVCAR-4

SMILES: CCOC(=O)C(O)(NC(C)=O)C(F)(F)F (stereo not given)
- GI50 [1]: > 100 µM (inactive)
- GI50 [2]: > 100 µM (inactive)
- GI50 [3]: > 100 µM (inactive)
- GI50 [4]: > 100 µM
- GI50 [5]: > 100 µM (inactive)
- GI50 [6]: > 100 µM (inactive)
- GI50 [7]: > 100 µM (inactive)
- GI50 [8]: > 100 µM (inactive)
- GI50 [9]: 7.24 µM (inactive)
- GI50 [10]: 26.2 µM (inactive)
- GI50 [11]: > 100 µM (inactive)
- GI50 [12]: > 100 µM (inactive)
- GI50 [13]: > 100 µM (inactive)
- GI50 [14]: > 100 µM (inactive)
- GI50 [15]: > 100 µM (inactive)
- GI50 [16]: > 100 µM (inactive)
- GI50 [17]: > 100 µM (inactive)
- GI50 [18]: > 100 µM (inactive)
- GI50 [19]: > 100 µM (inactive)
- GI50 [20]: > 100 µM (inactive)
- GI50 [21]: > 100 µM (inactive)
- GI50 [22]: > 100 µM (inactive)
- GI50 [23]: > 100 µM (inactive)
- GI50 [24]: > 100 µM (inactive)
- GI50 [25]: > 100 µM (inactive)
- GI50 [26]: > 100 µM (inactive)
- GI50 [27]: > 100 µM (inactive)
- GI50 [28]: > 100 µM (inactive)
- GI50 [29]: > 100 µM (inactive)
- GI50 [30]: > 100 µM (inactive)
- GI50 [31]: > 100 µM (inactive)
- GI50 [32]: > 100 µM (inactive)
- GI50 [33]: 43.8 µM (inactive)
- GI50 [34]: > 100 µM (inactive)
- GI50 [35]: > 100 µM (inactive)
- GI50 [36]: > 100 µM (inactive)
- GI50 [37]: > 100 µM (inactive)
- GI50 [38]: > 100 µM (inactive)
- GI50 [39]: > 100 µM (inactive)
- GI50 [40]: > 100 µM (inactive)
- GI50 [41]: > 100 µM (inactive)
- GI50 [42]: > 100 µM (inactive)
- GI50 [43]: > 100 µM (inactive)
- GI50 [44]: > 100 µM (inactive)
- GI50 [45]: > 100 µM (inactive)
- GI50 [46]: > 100 µM (inactive)
- GI50 [47]: > 100 µM (inactive)
- GI50 [48]: > 100 µM (inactive)
- GI50 [49]: > 100 µM (inactive)
- GI50 [50]: > 100 µM (inactive)
- GI50 [51]: > 100 µM (inactive)
- GI50 [52]: > 100 µM (inactive)
- GI50 [53]: > 100 µM (inactive)
- GI50 [54]: > 100 µM (inactive)
- GI50 [55]: > 100 µM (inactive)
